Results: patent US20260199485A1, “RNA DEGRADERS AND USES THEREOF” (Arrakis Therapeutics, Inc., priority 2022, published 2026)

Assays:
[1] = biological target: T1, CNOT7-FKBP12(F36V) fusion protein (Homo sapiens, UniProt Q9UIV1); experiment: Biochemical gel assay: degradation/deadenylation of RNA substrate with immunoprecipitated CNOT7-FKBP12(F36V); design: key to Activity by gel: +: an activity observed as compared to DMSO control; −: no activity observed as compared to DMSO control; settings: for interference with the ability of CNOT7 to degrade RNA: compound added to the CNOT7 and RNA mixture (FIG. 11); for Activity by gel: Table 8, degradation of RNA, compared to DMSO control
T1 construct: expressed in transfected cells; host or cells: H1299 cells; anti-HA immunoprecipitation, HA-peptide elution
T1 sequence (Q9UIV1 with tags, fused parts or gaps): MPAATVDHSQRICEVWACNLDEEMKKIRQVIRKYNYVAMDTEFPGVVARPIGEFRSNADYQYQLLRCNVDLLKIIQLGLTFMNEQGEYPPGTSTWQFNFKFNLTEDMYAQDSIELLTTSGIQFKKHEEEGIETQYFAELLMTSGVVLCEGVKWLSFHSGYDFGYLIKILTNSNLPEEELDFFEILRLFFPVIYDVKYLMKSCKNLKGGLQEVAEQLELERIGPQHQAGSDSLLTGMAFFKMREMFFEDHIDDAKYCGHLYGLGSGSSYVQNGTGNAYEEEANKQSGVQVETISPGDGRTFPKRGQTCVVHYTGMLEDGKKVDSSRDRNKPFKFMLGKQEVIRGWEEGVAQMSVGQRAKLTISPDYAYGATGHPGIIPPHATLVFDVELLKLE
Text: Biochemical reporter systems were generated to evaluate the ability of CNOT7 binding compounds to accelerate the degradation of RNA by CNOT7. […] Generation of the target RNA was described in the previous experiment. […] The bifunctional molecules consist of Compound 1-4 and the following rSM:
which binds to the RNA sequence of AST-X, or the rSM linked to a tag that binds CNOT7-FKBPV. Specifically, the tag is compound AP1867 (CAS NO.: 195514-23-9), a known binder of FKBPV, resulting in the rSM-AP1867tag. The CNOT7-FKBPV is obtained by immunoprecipitation of cell engineered to express CNOT-FKBPV. Specifically, H1299 cells were transfected with plasmid expressing HA-tagged CNOT7-FKBP12(F36V) fusion protein. After 24 hours, cells were pelleted and lysed in the following lysis buffer: 20 mM HEPES pH 7.3, 0.2 mM EGTA, 10% glycerol, 0.1 mM DTT with cOmplete EDTA-free protease inhibitors (Millipore). After freeze-thawing, NaCl was added to a concentration of 400 mM and lysates were pelleted to clear cellular debris. Cleared lysate was adjusted to buffer conditions containing 0.1% NP-40 and 150 mM NaCl before being applied to Pierce Anti-HA magnetic beads (ThermoFisher) at 4° C. for 2-20 hours with end-over-end rotation. After washing, bound protein was competitively eluted with 2 mg/mL HA peptide (ThermoFisher) in activity assay buffer at 4° C. for 2-20 hours. It should be appreciated that this immunoprecipitation protocol will result in tagged CNOT7 that will likely have other components of the CCR4-NOT complex bound as well.
The reactions were incubated at 37° C., with specified timepoints removed from the reaction and combined with 2× formamide RNA loading buffer with 10 mM EDTA before boiling for 3 minutes to quench the reaction. Samples were run on a pre-warmed 15% TBE-Urea polyacrylamide gel at 180V for 90 minutes and then imaged using Cy2 settings on the Azure Biosystems 600 Imaging System. […] It should be noted that the CCR4-NOT complex includes proteins other than CNOT7, for instance CNOT6, that have deadenylation and/or exonuclease activity.
These findings were confirmed in the biochemical assay described above. […] In contrast, literature compounds that are active site binders, compounds A, B and C, structure depicted on the right-hand side, do interfere with the ability of CNOT7 to degrade RNA (See center panel of gel).
Heterobifunctional molecules were generated by conjugating the rSM depicted above, which binds RNA with an AST-X sequence, to AP1867 (a small molecule binder of FKBP12(F36V)), resulting in rSM-AP1867tag. In addition, I-243 was conjugated to the rSM resulting in compounds 1-329 and I-371, depicted in FIG. 17. Fluorescently labeled RNA substrates were refolded in the presence of Mg^2+ and incubated 10, 25, or 50 μM doses of heterobifunctional molecules for 30 minutes at room temperature before the enzymatic reaction was initiated with the elution fraction (containing CNOT7-FKBP12(F36V) fusion protein) from the immunoprecipitation protocol above. The reactions were incubated at 37° C., with specified timepoints removed from the reaction and combined with 2× formamide RNA loading buffer with 10 mM EDTA before boiling for 3 minutes to quench the reaction. Samples were run on a pre-warmed 15% TBE-Urea polyacrylamide gel at 180V for 120 minutes and then imaged using Cy2 settings on the Azure Biosystems 600 Imaging System (See FIGS. 18, 19A and 19B). In addition, for 1-371 and the control rSM-AP1867tag, the disappearance of the full-length substrate band was quantified using ImageJ and plotted over time (FIG. 19B).

CNOT7 [2] = biological target: T2, CNOT7 (Homo sapiens, UniProt Q9UIV1); experiment: Binding of compounds to CNOT7 by surface plasmon resonance (SPR)
T2 construct: biotin (biotinylated); purchased Ichor Life Sciences
T2 sequence (Q9UIV1 whole entry): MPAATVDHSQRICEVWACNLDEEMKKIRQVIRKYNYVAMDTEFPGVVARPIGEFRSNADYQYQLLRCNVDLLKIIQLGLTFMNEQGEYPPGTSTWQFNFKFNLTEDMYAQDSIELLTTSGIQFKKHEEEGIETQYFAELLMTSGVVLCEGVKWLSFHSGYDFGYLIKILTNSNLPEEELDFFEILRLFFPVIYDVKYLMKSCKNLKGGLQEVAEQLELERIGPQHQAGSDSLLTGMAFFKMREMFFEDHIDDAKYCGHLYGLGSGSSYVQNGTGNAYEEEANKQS
Outline: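 Biotinylated CNOT7 captured on a streptavidin chip (~7,500 RU); compounds injected at several concentrations (120 s association, 120 s dissociation, 30 ul/min) in 20 mM HEPES pH7.5, 100 mM KCl, 3 mM MgCl2, 1 mM TCEP, 0.05% tween-20, 2% DMSO. Reference- and solvent-corrected sensograms fit to a 1:1 steady-state affinity model.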

CNOT7 [3] = biological target: T2, CNOT7; experiment: AMP competition assay by SPR (active site vs other site of CNOT7); type: binding; settings: combination with AMP, increasing concentrations
Method: In order to evaluate if the compounds bound to the active site of CNOT7, an AMP competition experiment was performed. FIG. 5 provides a schematic of a surface plasmon resonance (SPR) experiment to interrogate if a CNOT7 binding compound binds in the active site of CNOT7. Briefly, AMP, which is a known binder to the active site, was interrogated at increasing concentrations for binding to CNOT7. As a next step, a CNOT7 binding compound was interrogated at increasing concentrations for binding to CNOT7. As a final step a combination of AMP and CNOT7 binding compound was interrogated by SPR at increasing concentrations for binding to CNOT7. If the signals were additive, AMP and the CNOT7 compounds bind to independent sites on CNOT7. […] In contrast, if the signals are not additive, this would indicate that AMP and CNOT7 […] for the same site. […] As a control, literature compounds that are active site binders, compounds A, B and C, are not additive when combined with AMP.

CNOT7:CNOT1 complex = biological target: T3, CNOT7:CNOT1 complex (Homo sapiens, UniProt Q9UIV1); experiment: CNOT7:CNOT1 recombinant assay (deadenylation gel); type: biochemical; settings: 50 microM compound, 50 nM CNOT7:CNOT1
T3 construct: purchased Helix Biosciences; host or cells: E. coli
T3 sequence (Q9UIV1 whole entry): as above
T3 sequence (A5YKK6 1093-1317 partner limits assumed): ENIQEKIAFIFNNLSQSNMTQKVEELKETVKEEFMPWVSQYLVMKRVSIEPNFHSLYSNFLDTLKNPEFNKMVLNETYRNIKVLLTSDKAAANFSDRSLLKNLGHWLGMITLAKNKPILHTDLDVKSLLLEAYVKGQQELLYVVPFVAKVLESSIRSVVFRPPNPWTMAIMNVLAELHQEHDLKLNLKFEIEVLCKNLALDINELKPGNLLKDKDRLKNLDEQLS
Method: Recombinant CNOT7:CNOT1 (MIF4G domain: aa 1093-1317) complex was produced in E. coli including an 8×His affinity tag, which was cleaved prior to use. The resulting untagged complex was purified to high purity (Helix Biosciences). For this biochemical assay, deadenylation reactions are carried out by refolding 2 microM fluorescently labeled RNA substrate (5′ 6-FAM-[…] AAAAAA (SEQ ID NO:1)) in the presence of 100 mM KCl and 3 mM MgCl2 at 37 C for 30 minutes and then pre-incubating the RNA with 500 microM compound (inhibitor, heterobifunctional, or the CNOT7 binding moiety of the heterobifunctional) at room temperature for 30 minutes (in the presence of 0.05% Tween-20) before initiating the deadenylation reaction with the addition of recombinant CNOT7:CNOT1 complex. In the reactions, the final concentration of RNA was […], the final concentration of the compounds was 50 microM, and the final concentration of CNOT7:CNOT1 was 50 nM. Glycerol and BSA were included in the reactions to aid in protein stability and activity (final concentrations of 5% and 0.15 mg/mL, respectively). Timepoints were removed from the reaction and quenched by adding formamide loading dye including 10 mM EDTA. Samples were run on 15% TBE-Urea gels at 180V for 2-2.5 hours to resolve substrate and product bands and imaged using an Azure imager with FAM detection settings. Bands were quantified using ImageJ and % full length substrate over time was calculated by [Intensity of substrate band]/[Total intensity of full lane of gel].

CNOT7 [4] = biological target: T2, CNOT7; experiment: CNOT7 inhibition assay (recombinant Avi-tagged CNOT7, deadenylation gel); type: biochemical; settings: 50 μM compound, 100 nM recombinant Avi-tagged CNOT7, 200 nM RNA
Method: Recombinant CNOT7 (with a C-terminal Avi tag) was produced in E. coli and purified to high purity. For this biochemical assay, deadenylation reactions are carried out by refolding 2 microM fluorescently labeled RNA substrate (5′ 6-FAM-[…] AAAAAA (SEQ ID NO:1) in the presence of 100 mM KCl and 3 mM MgCl2 at 37 C for 30 minutes and then pre-incubating the RNA with 500 microM compound (inhibitor, heterobifunctional, or the CNOT7 binding moiety of the heterobifunctional) at room temperature for 30 minutes (in the presence of 0.05% Tween-20) before initiating the deadenylation reaction with the addition of the recombinant CNOT7 (with Avi-tag). In the reactions, the final concentration of RNA was 200 nM, the final concentration of the compounds was 50 μM, and the final concentration of CNOT7 was 100 nM. Glycerol and BSA were included in the reactions to aid in protein stability and activity (final concentrations of 5% and 0.15 mg/mL, respectively). Timepoints were removed from the reaction and quenched by adding formamide loading dye including 10 mM EDTA. Samples were run on 15% TBE-Urea gels at 180V for 2-2.5 hours and imaged using an Azure imager with FAM detection settings. Bands were quantified using ImageJ and % full length substrate over time was normalized to band intensity at time zero.
This was to be expected as the CNOT7 binding moieties are not expected to bind in the active site or interfere with the ability of CNOT7 to deadenylate RNA. […] We speculate that the inhibition is caused by specific interaction of the heterobifunctional compounds with the recombinant Avi-tagged CNOT7.

[5] = Table 4, dissociation constant for CNOT7
[6] = Table 5, dissociation constant for CNOT7 by SPR
[7] = dissociation constant by SPR, Table 7

Structure (SMILES) | interference with the ability of CNOT7 to degrade RNA [1] | Kd (CNOT7 [2]; [5]) [µM] | SPR signal additive to AMP (additive = binds CNOT7 at a location other than the active site) (CNOT7 [3]) | inhibited or accelerated the deadenylation activity of the CNOT7:CNOT1 complex (CNOT7:CNOT1 complex) | inhibition of CNOT7 activity (rate of deadenylation vs DMSO control) (CNOT7 [4]) | Kd (CNOT7 [2]; [6]) [µM] | Kd (CNOT7 [2]; Table 6, dissociation constant for CNOT7 by SPR) [µM] | Kd (CNOT7 [2]; [7]) [µM] | Activity by gel [1]
Cc1c[nH]c(=O)nc1SCC(=O)NCc1ccc2c(c1)OCO2 [Compound I-1] | did not interfere | 1 to 25 | additive to AMP | – | – | – | – | – | –
Cc1c[nH]c(=O)nc1SCC(=O)NCc1ccccc1 [Compound I-3, N-Benzyl-2-[(5-methyl-2-oxo-1H-pyrimidin-4-yl)sulfanyl]acetamide] | did not interfere | > 25 | additive to AMP | – | – | – | – | – | –
COc1ccc(CNC(=O)CSc2nc(=O)[nH]cc2C)cc1 [Compound I-4] | did not interfere | 1 to 25 | additive to AMP | – | – | – | – | – | –
COc1ccc2c(c1)CCN(C(=O)CSc1nc(=O)[nH]cc1C)C2 [Compound I-198] | – | – | – | neither | did not inhibit CNOT7 activity | 1 to 25 | – | – | –
COc1ccc(C(C)NC(=O)CSc2nc(=O)[nH]cc2C)c(F)c1 (centres unmarked) [Compound I-243] | – | – | – | neither | slightly inhibited CNOT7 activity | 0.1 to 1 | – | – | –
COc1ccc([C@@H](C)NC(=O)CSc2nc(=O)[nH]cc2Cl)c(F)c1 [Compound I-330] | – | – | – | neither | slightly inhibited CNOT7 activity | – | 0.1 to 1 | 1 to 25 | –
COc1ccc([C@@H](C)NC(=O)[C@@H](CCOCCOCCOCCn2cc(COCCOCCOCCOCCOc3ccc(NC(=O)Nc4nc(CC(=O)N5CCN(C)CC5)cs4)cc3)nn2)Sc2nc(=O)[nH]cc2Cl)c(F)c1 [Compound I-397] | – | – | – | – | inhibit some of the CNOT7 activity | – | – | 1 to 25 | +
COc1ccc2c(c1)C[C@H](COCCOCCOCCOCCn1cc(COCCOCCOc3ccc(NC(=O)Nc4nc(CC(=O)N5CCN(C)CC5)cs4)cc3)nn1)C(C(=O)CSc1nc(=O)[nH]cc1C)C2 (some centres unmarked) [Compound I-496] | – | – | – | neither | inhibit some of the CNOT7 activity | – | – | > 25 | +
